In article PMC11693508, “Pharmacokinetics, bioavailability, and tissue distribution of MRTX1133 in rats using UHPLC-MS/MS” (Frontiers in Pharmacology, 2024):
Where two headings read alike, the source gives them in different places.

How the values were obtained:
[1] = Pharmacokinetic study in rats after intragastric and intravenous administration (plasma, UHPLC-MS/MS); type: in vivo, Sprague-Dawley rats; settings: for Tmax: po, 25 mg/kg; for AUC(0-t): n = 10; for MRT last: read-out: MRT(0-t)
Procedure: The pharmacokinetic study was performed using oral solutions of MRTX1133 in 5% carboxymethyl-cellulose sodium (CMC-Na) at a concentration of 2.5 mg mL^-1 (the dose was 25 mg kg^-1 and 10 mL kg^-1). The intravenous solution was prepared at a concentration of 5 mg mL^-1 in polyethylene glycol 400 and dimethyl sulfoxide (8%). Twenty rats were randomly divided into two groups (ten rats each group), the rats in one group were given MRTX1133 by intravenous administration at 5 mg kg^-1 and the other group by intragastric administration at 25 mg kg^-1. Rats were slightly anesthetized with diethyl ether, blood samples were collected (approximately 150 µL) from the suborbital vein, and placed into heparinized tubes at 0.17 h, 0.33 h, 0.5h, 0.75 h, 1 h, 1.5 h, 2 h, 3 h, 4 h, 6 h, 8 h, 10 h, and 24 h after treatment. The rats were treated with saline at the same volume by gavage and used as control. Blood samples were centrifuged at 20,800 g for 10 min (at 4°C) and stored at - 80°C.
The DAS 3.2 software package (edited by the Chinese Mathematical Pharmacology Society) was used for the pharmacokinetic data analysis and the non-compartmental model was applied. The oral bioavailability (F) of MRTX1133 was measured by comparing each area under the curve (AUC) 0-t value after intragastric (i.g.) and intravenous (i.v.) administration according to the equation: F = (AUC i. g./Dose i. g.)/(AUC i. v./Dose i. v.).

[2] = Tissue distribution in rats after single intravenous administration; type: in vivo, Sprague-Dawley rats; settings: rat, intravenous 5 mg/kg; for concentration at 2 h: after 2 h; for concentration at 6 h: after 6 h
Procedure: (§1) The distribution of MRTX1133 in the tissues was performed using 25 rats with a single intravenous administration of MRTX1133 at 5 mg kg^-1. The blood samples were collected from abdominal aorta at 0.5 h, 1 h, 2 h, 6 h, and 24 h (five rats at each time point), then the organs such as the heart, liver, spleen, lung, kidney, intestine, and pancreas were immediately collected. The organs were washed with cold physiological saline (4°C), they were weighed and homogenized in cold saline solution (1:3, w/v). The homogenized samples were treated according to the method described in the sample preparation section. The excretion of MRTX1133 in the urine was also investigated by placing the rats in metabolic cages after intravenous administration of MRTX1133 at 5 mg kg^-1 (one rat in each cage), the urine and feces were collected at 2 h, 6 h and 24 h after administration (five rats at each time point), and the content of MRTX1133 in urine and feces was detected by the LC-MS method.

[3] = Excretion in urine and feces of rats after intravenous administration; type: in vivo, Sprague-Dawley rats; settings: rat, intravenous 5 mg/kg; for excretion through the kidney as prototype drug (urine): mean ± SD, n = 5
Procedure: as §1

[4] = design: method as in Wang et al. (2022); settings: CD-1 mice, intraperitoneal 30 mg/kg, ref Wang et al. (2022), cited from earlier work
KRAS (G12D) = tested on: KRAS (G12D); design: method as in Wang et al., 2022; settings: in vitro in cell culture; ref Wang et al., 2022; cited from earlier work
[5] = tested on: tumor models, including pancreatic and colorectal cancer; design: method as in Kataoka et al., 2023; Drosten and Barbacid, 2022; settings: multiple in vivo tumor models, ref Kataoka et al., 2023, Drosten and Barbacid, 2022; cited from earlier work
[6] = Sprague-Dawley, rat plasma, intravenous 5 mg/kg
[7] = Sprague-Dawley, rat plasma, oral 25 mg/kg

**Q.** Which bioavailability ([1]; Sprague-Dawley, plasma, oral, rat, AUC(0-t) i.g. 25 mg/kg vs i.v. 5 mg/kg, read-out: F (oral bioavailability)) does the source give for `C#Cc1c(F)ccc2cc(O)cc(-c3ncc4c(N5CC6CCC(C5)N6)nc(OC[C@@]56CCCN5C[C@H](F)C6)nc4c3F)c12` [MRTX1133] here?
**A.** The bioavailability was 2.92%.

**Q.** What about the CL/F ([1]; Sprague-Dawley, plasma, rat, oral 25 mg/kg, read-out: CL/F (converted)) of the same compound?
**A.** The CL/F was 199 L/h/kg.

**Q.** What about the Tmax ([1]; Sprague-Dawley, rat, plasma, rat plasma, oral 25 mg/kg, read-out: Tmax) of the same compound?
**A.** Its Tmax is 0.6 ± 0.13 h.

**Q.** What about the Tmax ([1]; Sprague-Dawley, rat, plasma, rat plasma, oral 25 mg/kg, read-out: time of peak plasma concentration (converted)) of the same compound?
**A.** Its Tmax is 0.75 h.

**Q.** And the half-life [1, 6]?
**A.** The half-life was 2.88 ± 1.08 h.

**Q.** And the AUC(0-t) [1, 6]?
**A.** Its AUC(0-t) is 928 ± 192 ng·h/mL.

**Q.** What about the MRT last [1, 6] of the same compound?
**A.** Its MRT last is 1.34 ± 0.6 h.

**Q.** And the Cmax [1, 7]?
**A.** Its Cmax is 130 ± 25.2 ng/mL.

**Q.** And the half-life [1, 7]?
**A.** The half-life was 1.12 ± 0.46 h.

**Q.** What about the MRT last [1, 7] of the same compound?
**A.** The MRT last was 1.25 ± 0.18 h.

**Q.** What about the AUC(0-t) ([1]; Sprague-Dawley, rat plasma, oral (intragastric) 25 mg/kg) of the same compound?
**A.** The AUC(0-t) was 136 ± 46.5 ng·h/mL.

**Q.** What about the “plasma concentration 8 h after intravenous administration” value ([1]; rat plasma, intravenous 5 mg/kg, 8 h) of the same compound?
**A.** Its value is “bleow the limit of quantitation”.

**Q.** What about the “plasma concentration 6 h after oral administration” value ([1]; rat plasma, oral 25 mg/kg, 6 h) of the same compound?
**A.** Its value is “bleow the limit of quantitation”.

**Q.** And the CL/F ([1]; rat, intravenous 5 mg/kg)?
**A.** The CL/F was 5.14 ± 1.58 L/h/kg.

**Q.** What about the V/F ([1]; rat, intravenous 5 mg/kg) of the same compound?
**A.** The V/F was 22.83 ± 11.67 L/kg.

**Q.** What about the V/F ([1]; rat, oral 25 mg/kg) of the same compound?
**A.** Its V/F is 318.99 ± 157.43 L/kg.

**Q.** What about the concentration at 2 h ([2]; Sprague-Dawley, heart, n = 5, read-out: highest concentration in heart) of the same compound?
**A.** The concentration at 2 h was 879 ± 450 ng/g.

**Q.** What about the concentration at 2 h ([2]; Sprague-Dawley, kidney, n = 5, read-out: highest concentration in kidney) of the same compound?
**A.** Its concentration at 2 h is 2580 ng/g.

**Q.** And the concentration at 1 h ([2]; Sprague-Dawley, liver, at 1 h, n = 5, read-out: highest concentration in liver)?
**A.** Its concentration at 1 h is 5360 ng/g.

**Q.** And the concentration at 2 h ([2]; Sprague-Dawley, lung, n = 5, read-out: highest concentration in lung)?
**A.** The concentration at 2 h was 1230 ng/g.

**Q.** And the concentration at 6 h ([2]; Sprague-Dawley, pancreas, n = 5, read-out: highest concentration in pancreas)?
**A.** Its concentration at 6 h is 156 ± 34.2 ng/g.

**Q.** And the concentration at 6 h ([2]; Sprague-Dawley, spleen, n = 5, read-out: highest concentration in spleen)?
**A.** The concentration at 6 h was 1860 ± 224 ng/g.

**Q.** And the detection in testis [2]?
**A.** The detection in testis was “no MRTX1133”.

**Q.** And the “concentration in liver, spleen, kidney and lung compared with plasma” value ([2]; 2 h after administration)?
**A.** The value was “higher than the concentration of the drug in plasma”.

**Q.** And the “detection in organs at 24 h” value ([2]; liver, kidney, lung, spleen, heart, pancreas (except intestine), 24 h)?
**A.** Its value is “still detectable”.

**Q.** And the tissue distribution ([2]; liver, kidney, lung, spleen, heart, pancreas, intestine)?
**A.** Its tissue distribution is “widely distributed”.

**Q.** And the “excretion through the kidney as prototype drug (urine)” value ([3]; 6 h)?
**A.** Its value is 10.43% ± 2.89%.

**Q.** What about the “excretion through the kidney as prototype drug (urine), range” value ([3]; 6 h) of the same compound?
**A.** Its value is 6.53%–13.54%.

**Q.** And the “excretion through the kidney as prototype drug (urine)” value ([3]; 24 h, 5 mg/kg)?
**A.** The value was 22.59% ± 3.22%.

**Q.** And the “excretion through the kidney as prototype drug (urine), range” value ([3]; 24 h)?
**A.** The value was 17.60%–25.92%.

**Q.** What about the MRTX1133 in feces ([3]; feces 24 h) of the same compound?
**A.** Its MRTX1133 in feces is “no MRTX1133 was found”.

**Q.** And the plasma concentration ([4]; 4 h)?
**A.** Its plasma concentration is ~1,000 ng mL^-1.

**Q.** What about the plasma concentration ([4]; 8 h) of the same compound?
**A.** The plasma concentration was about 100 ng/mL.

**Q.** And the plasma concentration ([4]; 24 h)?
**A.** Its plasma concentration is “approximately 50 ng mL^-1”.

**Q.** And the Cmax ([4]; at 1 h)?
**A.** The Cmax was “approximately 7,000 ng mL^-1”.

**Q.** And the potency (KRAS (G12D))?
**A.** Its potency is “single digit nanomolar”.

**Q.** What about the “selectivity for KRAS (G12D) compared with wild-type KRAS” value (KRAS (G12D)) of the same compound?
**A.** The value was “more than 1000 fold”.

**Q.** And the “antitumor effect in vivo” value [5]?
**A.** The value was “induces tumor regression”.
